According to patent publication US20260365628A1, “SUBSTITUTED 3,4-DIHYDROQUINOLINONE INHIBITORS OF TSHR” (Septerna, Inc., priority 2022, published 2026):

target: T1, hTSHR (Homo sapiens, UniProt P16473); test: hTSHR TR-FRET cAMP Assay (inhibition of M22-stimulated cAMP production); assay type: cell-based; details: Expi293F Inducible cells stably expressing hTSHR; cAMP HTRF; stimulated with EC80 of anti-TSHR antibody M22; 15 min compound preincubation, 30 min at 37° C.; read-out: Activity (IC50 bins)
T1 construct: expressed in transfected cells
T1 sequence (P16473 21-764): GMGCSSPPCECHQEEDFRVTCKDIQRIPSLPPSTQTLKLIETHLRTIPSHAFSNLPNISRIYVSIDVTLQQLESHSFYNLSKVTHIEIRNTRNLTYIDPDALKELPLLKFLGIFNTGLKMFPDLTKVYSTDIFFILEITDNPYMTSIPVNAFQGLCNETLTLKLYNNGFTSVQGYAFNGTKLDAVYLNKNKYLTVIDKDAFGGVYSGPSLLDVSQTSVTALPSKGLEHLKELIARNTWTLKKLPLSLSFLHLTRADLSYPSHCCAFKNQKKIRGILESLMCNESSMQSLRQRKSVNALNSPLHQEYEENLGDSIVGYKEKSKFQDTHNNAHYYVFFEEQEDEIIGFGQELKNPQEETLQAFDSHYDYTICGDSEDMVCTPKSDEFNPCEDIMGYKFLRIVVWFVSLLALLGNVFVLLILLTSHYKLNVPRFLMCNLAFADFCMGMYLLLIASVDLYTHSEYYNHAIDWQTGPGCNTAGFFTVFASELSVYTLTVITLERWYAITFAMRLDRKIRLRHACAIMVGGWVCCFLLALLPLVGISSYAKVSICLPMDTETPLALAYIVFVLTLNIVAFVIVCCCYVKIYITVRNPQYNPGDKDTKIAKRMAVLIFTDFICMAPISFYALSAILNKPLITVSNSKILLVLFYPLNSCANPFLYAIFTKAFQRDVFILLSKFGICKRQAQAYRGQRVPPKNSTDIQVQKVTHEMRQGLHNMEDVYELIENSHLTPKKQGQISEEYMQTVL
Procedure, shortened: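 Readout was a cAMP HTRF ratio of 655/620 nm after lysis, scaled between the EC80 M22 signal (0% inhibition) and no-agonist vehicle (100%). Frozen induced Expi293F-hTSHR cells saw test compounds (0.5% DMSO) for 15 min at 37 °C before 30 min of M22 stimulation at EC80.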

| SMILES | IC50 [nM] |
| --- | --- |
| C[C@H]1Oc2c(cc(C#N)c(NC(=O)NC(C)(C)C)c2F)N(Cc2ccccc2)C1=O [Example 369, (R)-1-(4-benzyl-6-cyano-8-fluoro-2-methyl-3-oxo-3,4-dihydro-2H-benzo[b][1,4]oxazin-7-yl)-3-(tert-butyl)urea] | < 100 |
| C[C@H]1Oc2c(cc(C#N)c(NC(=O)NC(C)(C)C)c2F)N(Cc2cccc(C(F)F)c2)C1=O [Example 370, (R)-1-(tert-butyl)-3-(6-cyano-4-(3-(difluoromethyl)benzyl)-8-fluoro-2-methyl-3-oxo-3,4-dihydro-2H-benzo[b][1,4]oxazin-7-yl)urea] | < 100 |
| C[C@H]1Oc2nc(NC(=O)NC(C)(C)C)c(C#N)cc2N(Cc2cccc(C(F)F)c2)C1=O [Example 371, (R)-1-(tert-butyl)-3-(7-cyano-1-(3-(difluoromethyl)benzyl)-3-methyl-2-oxo-2,3-dihydro-1H-pyrido[2,3-b][1,4]oxazin-6-yl)urea] | < 100 |
| C[C@@H](c1cc(Cl)ccc1F)n1c(=O)cnc2cc(NC(=O)NC(C)(C)C)c(Cl)cc21 [Example 372, (S)-1-(tert-butyl)-3-(7-chloro-1-(1-(5-chloro-2-fluorophenyl)ethyl)-2-oxo-1,2-dihydroquinoxalin-6-yl)urea] | < 100 |
| C[C@H]1Oc2cc(NC(=O)NC(C)(C)C)c(C#N)cc2N(Cc2cc(Cl)ccc2F)C1=O [Example 373, (R)-1-(tert-butyl)-3-(4-(5-chloro-2-fluorobenzyl)-6-cyano-2-methyl-3-oxo-3,4-dihydro-2H-benzo[b][1,4]oxazin-7-yl)urea] | 100 to 1000 |
| C[C@H]1Oc2nc(NC(=O)NC(C)(C)C)c(C(F)(F)F)cc2N(Cc2cccc(C(F)F)c2)C1=O [Example 374, (R)-1-(tert-butyl)-3-(1-(3-(difluoromethyl)benzyl)-3-methyl-2-oxo-7-(trifluoromethyl)-2,3-dihydro-1H-pyrido[2,3-b][1,4]oxazin-6-yl)urea] | < 100 |
| CC(c1cc(C(O)C(F)(F)F)ccc1F)n1c(=O)cnc2cc(NC(=O)NC(C)(C)C)ccc21 (stereo not drawn) [Example 375, 1-(tert-butyl)-3-(1-(1-(2-fluoro-5-(2,2,2-trifluoro-1-hydroxyethyl)phenyl)ethyl)-2-oxo-1,2-dihydroquinoxalin-6-yl)urea] | > 1000 |
| C[C@H]1Oc2nc(NC(=O)NC(C)(C)C)c(C(F)(F)F)cc2N([C@@H](C)c2ccccc2)C1=O [Example 376, 1-(tert-butyl)-3-((R)-3-methyl-2-oxo-1-((S)-1-phenylethyl)-7-(trifluoromethyl)-2,3-dihydro-1H-pyrido[2,3-b][1,4]oxazin-6-yl)urea] | < 100 |
| C[C@@H](c1ccccc1)N1C(=O)CCc2nc(NC(=O)NC(C)(C)C)c(C(F)(F)F)cc21 [Example 377, (S)-1-(tert-butyl)-3-(6-oxo-5-(1-phenylethyl)-3-(trifluoromethyl)-5,6,7,8-tetrahydro-1,5-naphthyridin-2-yl)urea] | < 100 |
